Values quoted from earlier work in PMC8865417, “Receptor Interaction Profiles of 4-Alkoxy-3,5-Dimethoxy-Phenethylamines (Mescaline Derivatives) and Related Amphetamines” (Frontiers in Pharmacology, 2022).

Legend:
Design in all cases: method as in Simmler et al. (2013)
hα1A adrenergic receptor = molecular target: T1, hα1A adrenergic receptor (Homo sapiens, UniProt P35348); settings: reference substance; ref Simmler et al. (2013); cited from earlier work
T1 construct: expressed in transfected cells; host or cells: Chinese hamster ovary cells (membrane preparations)
T1 sequence (P35348 1-466): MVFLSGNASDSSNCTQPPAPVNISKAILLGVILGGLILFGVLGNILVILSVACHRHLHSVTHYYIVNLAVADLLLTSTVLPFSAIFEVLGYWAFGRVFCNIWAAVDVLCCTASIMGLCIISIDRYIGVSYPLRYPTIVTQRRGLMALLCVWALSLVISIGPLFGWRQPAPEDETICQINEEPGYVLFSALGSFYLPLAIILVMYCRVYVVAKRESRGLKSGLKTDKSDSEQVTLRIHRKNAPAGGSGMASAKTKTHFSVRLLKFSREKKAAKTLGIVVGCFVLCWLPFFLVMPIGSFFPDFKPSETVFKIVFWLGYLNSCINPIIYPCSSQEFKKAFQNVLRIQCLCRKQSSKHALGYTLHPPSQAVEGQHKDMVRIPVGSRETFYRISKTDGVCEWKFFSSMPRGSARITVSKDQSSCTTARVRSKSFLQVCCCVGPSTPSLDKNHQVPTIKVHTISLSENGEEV

hSERT = molecular target: T2, hSERT (Homo sapiens, UniProt P31645); settings: reference substance; ref Simmler et al. (2013); cited from earlier work
T2 construct: expressed in transfected cells; host or cells: HEK 293 cells (membrane preparations)
T2 sequence (P31645 whole entry): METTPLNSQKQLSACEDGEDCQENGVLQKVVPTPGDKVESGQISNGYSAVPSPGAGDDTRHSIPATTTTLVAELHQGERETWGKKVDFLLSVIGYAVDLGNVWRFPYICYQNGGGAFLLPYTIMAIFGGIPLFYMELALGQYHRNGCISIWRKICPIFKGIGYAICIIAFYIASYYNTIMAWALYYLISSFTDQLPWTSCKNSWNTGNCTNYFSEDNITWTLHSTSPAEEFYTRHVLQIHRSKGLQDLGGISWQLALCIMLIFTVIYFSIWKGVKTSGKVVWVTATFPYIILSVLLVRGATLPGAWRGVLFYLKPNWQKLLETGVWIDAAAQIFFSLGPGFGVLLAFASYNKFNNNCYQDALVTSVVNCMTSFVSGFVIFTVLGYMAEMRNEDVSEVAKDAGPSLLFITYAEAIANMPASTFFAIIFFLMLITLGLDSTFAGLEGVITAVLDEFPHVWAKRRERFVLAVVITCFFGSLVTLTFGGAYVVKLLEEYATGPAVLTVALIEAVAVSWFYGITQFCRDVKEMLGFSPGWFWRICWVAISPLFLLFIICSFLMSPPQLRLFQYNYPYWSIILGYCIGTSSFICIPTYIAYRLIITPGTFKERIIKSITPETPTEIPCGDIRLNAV

[1] = molecular target: T3, dopaminergic hD2 receptor (Homo sapiens, UniProt P14416); settings: reference substance; ref Simmler et al. (2013); cited from earlier work
T3 construct: expressed in transfected cells; host or cells: HEK 293 cells (membrane preparations)
T3 sequence (P14416 whole entry): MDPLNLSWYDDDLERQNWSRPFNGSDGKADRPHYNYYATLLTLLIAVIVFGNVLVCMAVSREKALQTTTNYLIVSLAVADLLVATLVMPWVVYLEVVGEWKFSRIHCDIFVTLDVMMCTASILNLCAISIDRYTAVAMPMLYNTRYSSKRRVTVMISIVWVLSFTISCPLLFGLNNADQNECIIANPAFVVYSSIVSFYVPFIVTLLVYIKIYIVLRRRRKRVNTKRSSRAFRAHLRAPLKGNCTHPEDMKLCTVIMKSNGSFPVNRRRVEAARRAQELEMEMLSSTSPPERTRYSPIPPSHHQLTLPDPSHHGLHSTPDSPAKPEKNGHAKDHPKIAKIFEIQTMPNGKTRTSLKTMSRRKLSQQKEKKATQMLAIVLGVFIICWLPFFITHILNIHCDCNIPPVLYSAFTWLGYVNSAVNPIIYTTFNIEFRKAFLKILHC

mouse TAAR1 = molecular target: T4, mouse TAAR1 (Mus musculus, UniProt Q923Y8); settings: reference substance; ref Simmler et al. (2013); read-out: mTAAR1 Ki; cited from earlier work
T4 construct: expressed in transfected cells; host or cells: HEK 293 cells (membrane preparations)
T4 sequence (Q923Y8 whole entry): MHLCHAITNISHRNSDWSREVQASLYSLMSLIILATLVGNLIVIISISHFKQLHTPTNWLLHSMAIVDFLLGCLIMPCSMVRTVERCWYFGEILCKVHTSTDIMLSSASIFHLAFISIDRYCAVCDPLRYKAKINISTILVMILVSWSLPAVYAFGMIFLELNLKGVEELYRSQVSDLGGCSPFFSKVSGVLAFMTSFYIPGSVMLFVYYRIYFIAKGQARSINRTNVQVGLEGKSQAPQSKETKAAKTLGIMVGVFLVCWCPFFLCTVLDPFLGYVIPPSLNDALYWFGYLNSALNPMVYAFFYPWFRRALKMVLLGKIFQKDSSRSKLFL

rat TAAR1 = molecular target: T5, rat TAAR1 (Rattus norvegicus, UniProt Q923Y9); settings: reference substance; ref Simmler et al. (2013); read-out: rTAAR1 Ki; cited from earlier work
T5 construct: expressed in transfected cells; host or cells: HEK 293 cells (membrane preparations)
T5 sequence (Q923Y9 whole entry): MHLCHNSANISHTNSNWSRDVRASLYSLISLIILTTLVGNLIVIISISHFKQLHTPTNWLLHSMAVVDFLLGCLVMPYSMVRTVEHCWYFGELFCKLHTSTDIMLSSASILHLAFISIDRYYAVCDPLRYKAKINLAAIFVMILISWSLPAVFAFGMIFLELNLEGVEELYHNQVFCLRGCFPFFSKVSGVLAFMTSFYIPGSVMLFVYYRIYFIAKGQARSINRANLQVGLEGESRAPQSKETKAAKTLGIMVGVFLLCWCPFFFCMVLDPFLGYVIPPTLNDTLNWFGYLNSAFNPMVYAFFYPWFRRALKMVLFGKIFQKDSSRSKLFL

hNET = molecular target: T6, hNET (Homo sapiens, UniProt P23975); settings: reference substance; ref Simmler et al. (2013); cited from earlier work
T6 construct: expressed in transfected cells; host or cells: HEK 293 cells (membrane preparations)
T6 sequence (P23975 whole entry): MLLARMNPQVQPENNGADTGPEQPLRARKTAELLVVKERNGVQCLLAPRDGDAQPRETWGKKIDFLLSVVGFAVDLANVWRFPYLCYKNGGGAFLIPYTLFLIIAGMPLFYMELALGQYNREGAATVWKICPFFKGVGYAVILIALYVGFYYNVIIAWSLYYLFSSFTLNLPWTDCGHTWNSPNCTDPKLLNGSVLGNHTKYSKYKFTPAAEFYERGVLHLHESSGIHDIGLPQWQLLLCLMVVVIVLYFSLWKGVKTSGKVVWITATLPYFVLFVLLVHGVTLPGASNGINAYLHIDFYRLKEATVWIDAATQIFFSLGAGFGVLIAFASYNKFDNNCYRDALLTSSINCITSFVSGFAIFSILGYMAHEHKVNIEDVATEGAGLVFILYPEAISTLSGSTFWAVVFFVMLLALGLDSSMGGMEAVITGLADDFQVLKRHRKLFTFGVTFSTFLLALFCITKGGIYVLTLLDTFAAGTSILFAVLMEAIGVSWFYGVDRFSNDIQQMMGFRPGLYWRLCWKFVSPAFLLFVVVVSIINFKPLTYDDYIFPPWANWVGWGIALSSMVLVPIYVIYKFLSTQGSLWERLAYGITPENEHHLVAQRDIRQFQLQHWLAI

hα2A adrenergic receptor = molecular target: T7, hα2A adrenergic receptor (Homo sapiens, UniProt P08913); settings: reference substance; ref Simmler et al. (2013); cited from earlier work
T7 construct: expressed in transfected cells; host or cells: Chinese hamster lung cells (membrane preparations)
T7 sequence (P08913 1-465): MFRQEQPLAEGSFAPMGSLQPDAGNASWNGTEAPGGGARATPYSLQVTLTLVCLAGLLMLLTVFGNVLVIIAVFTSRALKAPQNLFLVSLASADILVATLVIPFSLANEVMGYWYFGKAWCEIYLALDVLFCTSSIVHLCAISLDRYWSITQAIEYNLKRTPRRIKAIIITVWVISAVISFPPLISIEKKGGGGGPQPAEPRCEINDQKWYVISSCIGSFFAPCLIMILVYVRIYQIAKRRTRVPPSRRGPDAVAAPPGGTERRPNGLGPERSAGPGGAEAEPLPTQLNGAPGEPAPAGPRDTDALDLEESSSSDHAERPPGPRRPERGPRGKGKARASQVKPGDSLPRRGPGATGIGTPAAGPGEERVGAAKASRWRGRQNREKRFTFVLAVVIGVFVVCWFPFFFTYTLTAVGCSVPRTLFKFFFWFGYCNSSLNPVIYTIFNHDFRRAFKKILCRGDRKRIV

hDAT = molecular target: T8, hDAT (Homo sapiens, UniProt Q01959); settings: reference substance; ref Simmler et al. (2013); cited from earlier work
T8 construct: expressed in transfected cells; host or cells: HEK 293 cells (membrane preparations)
T8 sequence (Q01959 whole entry): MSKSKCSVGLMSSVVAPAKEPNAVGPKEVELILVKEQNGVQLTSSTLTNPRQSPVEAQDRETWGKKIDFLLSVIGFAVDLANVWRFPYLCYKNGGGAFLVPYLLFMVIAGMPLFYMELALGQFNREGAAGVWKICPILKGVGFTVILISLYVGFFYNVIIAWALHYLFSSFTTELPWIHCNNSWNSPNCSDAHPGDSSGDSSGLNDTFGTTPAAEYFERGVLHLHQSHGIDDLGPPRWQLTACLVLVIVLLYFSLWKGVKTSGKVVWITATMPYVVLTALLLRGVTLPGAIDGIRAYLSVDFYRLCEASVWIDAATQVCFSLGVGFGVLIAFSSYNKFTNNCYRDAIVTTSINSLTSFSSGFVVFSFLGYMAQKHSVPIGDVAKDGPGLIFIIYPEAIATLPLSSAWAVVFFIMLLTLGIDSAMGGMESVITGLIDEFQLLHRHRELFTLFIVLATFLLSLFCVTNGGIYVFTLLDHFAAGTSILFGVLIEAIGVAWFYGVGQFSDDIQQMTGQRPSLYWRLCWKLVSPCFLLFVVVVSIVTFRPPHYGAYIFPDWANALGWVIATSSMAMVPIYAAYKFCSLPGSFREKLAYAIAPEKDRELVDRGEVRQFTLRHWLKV

For `CNC(C)Cc1ccc2c(c1)OCO2` (centres unmarked) [MDMA], the Ki (hα1A adrenergic receptor) is given as greater than 8.7 µM, the Ki (hSERT) is given as greater than 7.5 µM and the Ki [1] is given as greater than 6.3 µM. For the same molecule, the Ki (mouse TAAR1) was 2.4 µM, the Ki (rat TAAR1) was 0.37 ± 0.12 µM and the Ki (hNET) was greater than 9.7 µM. The Ki (hα2A adrenergic receptor) was greater than 5.1 µM and the Ki (hDAT) was greater than 8.5 µM.
